Source: the NIST ThermoML archive (doi:10.1021/je700670k)

Settings: Liquid, Vibrating tube method

CCC[N+]1(C)CCCCC1.O=S(=O)([N-]S(=O)(=O)C(F)(F)F)C(F)(F)F
mass density [kg/m3]
Settings	293.15 K	303.15 K	313.15 K	323.15 K	333.15 K	353.15 K	393.15 K
100 kPa	1416.9	1407.2	1397.4	1387.6	1377	1358.5	1322.3
1000 kPa	1417.6	1407.8	1398.1	1388.3	1377.8	1359.3	1323.2
2000 kPa	1418.3	1408.6	1398.9	1389.1	1378.6	1360.2	1324.3
3000 kPa	1419	1409.3	1399.5	1389.9	1379.3	1361.1	1325.3
4000 kPa	1419.6	1410	1400.2	1390.6	1380.1	1361.9	1326.2
5000 kPa	1420.3	1410.7	1401	1391.4	1380.9	1362.8	1327.3
7500 kPa	1422	1412.5	1402.8	1393.2	1382.8	1364.7	1329.7
10000 kPa	1423.8	1414.3	1404.7	1395.1	1384.8	1366.7	1331.8
15000 kPa	1427.1	1417.7	1408.2	1398.7	1388.5	1370.7	1336.3
20000 kPa	1430.4	1421.1	1411.7	1401.9	1392.3	1374.7	1340.7
25000 kPa	1433.7	1424.4	1415.1	1405	1396	1378.4	1344.8
30000 kPa	1436.8	1427.6	1418.4	1408.6	1399.5	1382.1	1348.9
35000 kPa	1439.9	1430.7	1421.7	1412.1	1403	1385.7	1353
